In PubChem BioAssay (NCI):
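Each compound was tested at five concentrations against cells in 96-well plates for 48 hours. TGI denotes the concentration required for complete inhibition of growth.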

What was measured:
Assay in all cases: NCI tumour cell line growth inhibition, 48 h
[1] = tested on: 786-0 renal
[2] = tested on: A498 renal
[3] = tested on: A549 NSCLC
[4] = tested on: ACHN renal
[5] = tested on: BT-549 breast
[6] = tested on: CAKI-1 renal
[7] = tested on: CCRF-CEM leukemia
[8] = tested on: COLO 205 colon
[9] = tested on: DU-145 prostate
[10] = tested on: EKVX NSCLC
[11] = tested on: HCC-2998 colon
[12] = tested on: HCT-116 colon
[13] = tested on: HCT-15 colon
[14] = tested on: HL-60(TB) leukemia
[15] = tested on: HOP-62 NSCLC
[16] = tested on: HOP-92 NSCLC
[17] = tested on: HS 578T breast
[18] = tested on: HT29 colon
[19] = tested on: IGROV1 ovarian
[20] = tested on: K-562 leukemia
[21] = tested on: KM12 colon
[22] = tested on: LOX IMVI melanoma
[23] = tested on: M14 melanoma
[24] = tested on: MALME-3M melanoma
[25] = tested on: MCF7 breast
[26] = tested on: MDA-MB-231 breast
[27] = tested on: MDA-MB-435
[28] = tested on: MDA-N
[29] = tested on: MOLT-4 leukemia
[30] = tested on: NCI-H226 lung
[31] = tested on: NCI-H23 lung
[32] = tested on: NCI-H460 lung
[33] = tested on: NCI-H522 lung
[34] = tested on: NCI/ADR-RES ovarian
[35] = tested on: OVCAR-3 ovarian
[36] = tested on: OVCAR-4 ovarian
[37] = tested on: OVCAR-5 ovarian
[38] = tested on: OVCAR-8 ovarian
[39] = tested on: PC-3 prostate
[40] = tested on: RPMI-8226 leukemia
[41] = tested on: RXF 393 renal
[42] = tested on: SF-268 CNS
[43] = tested on: SF-295 CNS
[44] = tested on: SF-539 CNS
[45] = tested on: SK-MEL-2 melanoma
[46] = tested on: SK-MEL-28 melanoma
[47] = tested on: SK-MEL-5 melanoma
[48] = tested on: SK-OV-3 ovarian
[49] = tested on: SN12C renal
[50] = tested on: SNB-19 CNS
[51] = tested on: SNB-75 CNS
[52] = tested on: SR leukemia
[53] = tested on: SW-620 colon
[54] = tested on: T-47D breast
[55] = tested on: TK-10 renal
[56] = tested on: U251 CNS
[57] = tested on: UACC-257 melanoma
[58] = tested on: UACC-62 melanoma
[59] = tested on: UO-31 renal

Measured: TGI

C=C1c2nc3ccccc3n2C=C(c2ccccc2)N1c1ccc(Cl)cc1
49.2 µM: [10] | [43]
> 70.3 µM: [56]
> 100 µM: [3] | [7] | [8] | [9] | [11] | [12] | [14] | [18] | [20] | [22] | [25] | [27] | [28] | [29] | [33] | [37] | [39] | [42] | [45] | [46] | [47] | [49] | [50] | [52] | [53] | [54] | [57] | [58] | [59]
19 µM: [51]
21.6 µM: [6]
> 90.1 µM: [13]
51.2 µM: [24]
57.2 µM: [55]
51.8 µM: [26]
20.9 µM: [44]
> 67.6 µM: [41]
20.6 µM: [1]
> 87.1 µM: [30]
61.6 µM: [36]
> 77.7 µM: [34]
61.2 µM: [16]
> 63.3 µM: [15]
> 77 µM: [2]
> 49.4 µM: [32]
79.7 µM: [31]
> 89.5 µM: [19]
38.4 µM: [4]
> 66.2 µM: [5]
66.3 µM: [21]
59.5 µM: [35]
> 93.1 µM: [38]
> 86.7 µM: [48]
> 85 µM: [40]
> 75.2 µM: [23]
> 59.1 µM: [17]

CCCC(=O)OCC1OC(n2cc(F)c(=O)[nH]c2=O)CC1O (stereo unspecified)
> 10 µM: [1] | [3] | [4] | [5] | [6] | [7] | [8] | [9] | [10] | [12] | [13] | [14] | [15] | [16] | [17] | [18] | [19] | [20] | [21] | [23] | [24] | [25] | [26] | [27] | [28] | [29] | [30] | [32] | [33] | [34] | [35] | [36] | [37] | [38] | [39] | [40] | [41] | [42] | [45] | [46] | [48] | [49] | [50] | [52] | [53] | [54] | [55] | [56] | [57] | [58] | [59]
1.35 µM: [47]
> 9.04 µM: [2]
> 8.79 µM: [22]
> 3.02 µM: [43]
0.247 µM: [44]
9.55 µM: [51]
1.66 µM: [31]
> 2.97 µM: [11]

COC(=O)[C@@H]1C[C@@H](O)CN1C(=O)c1ccc([N+](=O)[O-])cc1[N+](=O)[O-]
> 100 µM: [1] | [2] | [3] | [4] | [5] | [6] | [7] | [8] | [9] | [10] | [11] | [12] | [13] | [14] | [15] | [16] | [17] | [18] | [19] | [20] | [21] | [22] | [23] | [25] | [26] | [27] | [28] | [29] | [30] | [31] | [32] | [33] | [34] | [35] | [36] | [37] | [38] | [39] | [40] | [41] | [42] | [43] | [44] | [45] | [46] | [47] | [48] | [49] | [50] | [51] | [52] | [53] | [54] | [55] | [56] | [57] | [58] | [59]
